For assay [1], the system named is DU-145 metastatic prostate cancer cells. Kind of assay: Invasion of fibronectin-depleted Matrigel by DU-145 cells. Type of assay: cell-based, human. The settings on record: 0.5 μl/ml peptide added to gelatin-panned Matrigel. The protocol:
This example describes a purification approach for removal of plasma fibronectin (and/or cellular fibronectin) from a substrate (Matrigel). In this example, removal was attempted by successive panning on gelatin. Eight wells of 24-well plate were coated with a 2% gelatin solution (the gelatin was obtained from Becton Dickinson Labware, Catalog #11868). The wells were filled with the gelatin solution which had been heated to 50° C. and incubated for 3 minutes. Then the solution was removed and the wells were allowed to air dry. Following drying, the wells were thoroughly rinsed with ddH2O followed by two rinses with PBS. The plates were again allowed to dry; thereafter they were stored at −20° C. until use. Matrigel was thawed on ice and then added to one of the wells of a gelatin-coated plate (between 800 μl and 1 ml of Matrigel was added to a well of a 24-well plate). The plate was placed in a bucket of ice in a […] room on an orbital shaker where the Matrigel was incubated in the well for two hours (although overnight incubation can be used). Following the incubation, the Matrigel was moved from the first well to a second well and then incubated for two hours under the same conditions. This process was repeated until the Matrigel had been incubated on all eight wells of the gelatin-coated plate.
Following the depletion of the Matrigel, it was collected in Eppendorf tubes. […]

The subject of assay [2] is SUM-52 PE breast cancer cells. In words: SU-ECM invasion assay, SUM-52 PE breast cancer cells. The assay is classed as cell-based, human. The settings on record: SUM-52 cells. How it is done: Adult Strongylocentrotus purpuratus sea urchins were obtained from Pacific BioMarine, and their embryos were cultured to the early pluteus stage in artificial sea water at 15° C. SU-ECM were prepared from them by treatment with nonionic detergent and strerilized by dilution in the appropriate media.
Cells were harvested by rinsing in Hanks' balanced salt solution, followed by brief treatment with 0.25% trypsin, 0.02% EDTA, and pelleting and resuspension in the appropriate medium with or without 5% FCS at a density of about 50,000 cells per ml. […]
Invasion assays were coded and scored blindly by microscopic examination under phase contrast at 200- and 400-fold magnification. Each cell contacting an SU-ECM was scored for its position relative to the exterior or interior surfaces. […] The minimum viability of the cells in each assay was always ascertained at the time of assay by determining the fraction of spread, adherent cells on the bottom of each well scored.
An invasion frequency is defined as the fraction of cells in contact with basement membranes which were located in their interiors at the time of assay. […] Invasion frequencies were determined multiple times for each cell type assayed. For each type of cell assayed the mean and standard deviation of the invasion frequencies were calculated. […]

For Pro-His-Ser-Arg-Asn (PHSRN), the “DU-145 invasiveness on depleted Matrigel” value in assay [1] is on record as “sufficient to restore the full DU-145 invasiveness”. Further, the “induction of invasion of SU-ECM” value in assay [2] is listed as “induced to invade the SU-ECM substrate”.

(Values after patent US20060078535A1, “Anticancer compounds and methods” (The Regents of the University of Michigan, priority 2004, published 2006).)
